Source: PMC8958505, “Discovery of Potential Neuroprotective Agents against Paclitaxel-Induced Peripheral Neuropathy” (Journal of Medicinal Chemistry, 2022)

Assays:
primary cortical neurons [1] = assay: Synaptogenesis assay of primary cortical neurons (image-based HCS) against paclitaxel-induced neurotoxicity; type: cell-based, mouse; details: for activity at 0.01 µM / activity at 1 µM: Mus musculus, Primary cortical neuron; for activity at 0.01 µM: read-out: A: Synaptogenesis (% of control) of test compound (10 nM) + paclitaxel (1 μM); for activity at 1 µM: read-out: B: Synaptogenesis (% of control) of test compound (1000 nM) + paclitaxel (1 μM)
Excerpt: (§1) Herein, we wish to report that an in vitro neurite outgrowth assay of cortical neurons integrated with an image-based high-content screening (HCS) platform is used to evaluate a commercially available library of 78 minoxidil-related derivatives,[22] leading to the identification of a series of analogues able to prevent or alleviate paclitaxel-induced neurotoxicity. The project began with screening compounds with the primary culture of cortical neurons from neonatal mice. More specifically, cerebral cortex neurons cultured from P0 C57BL/6J mouse pups were incubated with a test compound (10 and 1000 nM) prior to paclitaxel (1 μM) treatment. Subsequently, both neurite outgrowth and synaptogenesis were measured to evaluate the test compounds’ neuroprotective capacity. […] This unique feature is preserved for the core-structure screening of our in-house library in the following subject. Moreover, the substituent at the C4 position appears flexible in terms of structural diversity. Collectively, CSV0A024807, the only one displaying the best neuroprotective potency on both neurite outgrowth and synaptogenesis assays, was thus elected as a potential hit compound for further development.
(§2) Primary cortical or DRG cells were fixed with 4% paraformaldehyde for 15 min following compound and paclitaxel treatment. After washing with PBS, the fixed cells were permeabilized with PBS containing 0.05% Triton X-100 for 20 min and then blocked with commercial blocking buffer (#GTX30963; GeneTex, USA) at room temperature for 1 h. Subsequently, the cortical cells were stained for the extending processes and synaptic puncta by using anti-MAP2 (#MBS502140, 1:500; Mybiosource, USA) and anti-synaptophysin (#ab32127, 1:500; Abcam, UK) overnight. DRG cells were stained for the neurite and neuron nucleus by using anti-β III tubulin (#D71G9, 1:600; Cell Signaling, USA) and anti-NeuN monoclonal antibody (#MAB377, 1:400; Millipore, USA) overnight. On the second day, the samples were washed for 30 min with wash buffer and incubated with secondary antibodies (Alexa-488, 647 1:600; Thermo Fisher, USA) and 4 μg/mL Hoechst 33258 (#94403-1ML, 1:100; Merck, USA) at room temperature for 1 h. In the initial experiments of screening the potential neuroprotective compound for CIPN, ImageXpress^Micro (IXM) high-content imaging system (Molecular Devices, USA) driven by MetaXpress software was used. Images of treated cells were automatically acquired by using a 10× objective. Twenty-one images per well were taken in each of three channels (DAPI, FITC, and Cy5) to create a whole view of the entire neural network. The integrity of the neural network was evaluated using TIF images by importing them into MetaXpress software for analysis using the module for multiparameter, such as Neurite Outgrowth, Cell Scoring, and Transfluor. Furthermore, the score of synaptogenesis was analyzed in AcuityXpress software (Molecular Devices, USA).

primary cortical neurons [2] = assay: Neurite outgrowth assay of primary cortical neurons (image-based HCS) against paclitaxel-induced neurotoxicity; type: cell-based, mouse; details: for activity at 0.01 µM / activity at 1 µM: Mus musculus, Primary cortical neuron; for activity at 0.01 µM: read-out: C: Neurite outgrowth (% of control) of test compound (10 nM) + paclitaxel (1 μM); for activity at 1 µM: read-out: D: Neurite outgrowth (% of control) of test compound (1000 nM) + paclitaxel (1 μM)
Excerpt: as §1, §2

[3] = test compound 10 nM + paclitaxel 1 μM, mean ± SE
[4] = test compound 1000 nM + paclitaxel 1 μM, mean ± SE

Structure (SMILES)	activity at 0.01 µM (primary cortical neurons [1]; [3]) [%]	activity at 1 µM (primary cortical neurons [1]; [4]) [%]	activity at 0.01 µM (primary cortical neurons [2]; [3]) [%]	activity at 1 µM (primary cortical neurons [2]; [4]) [%]	further results
Oc1ccccc1/C=N/Nc1cc(N2CCCCC2)nc(N2CCCCC2)n1 [CSV0B023377]	42 ± 1	42 ± 3	57 ± 2	57 ± 4	–
CC(C)(C)c1ccc(C(=O)NNc2cc(N3CCCCC3)nc(N3CCCCC3)n2)cc1 [CSV0B001160]	51 ± 5	41 ± 1	89 ± 7	80 ± 5	–
COc1ccc(/C=N/Nc2cc(N3CCCC3)nc(N3CCCC3)n2)cc1 [CSV0A024813]	98 ± 4	81 ± 5	66 ± 2	63 ± 2	attenuation of synaptogenesis inhibited by paclitaxel (in words) (primary cortical neurons [1]; test compound 10 and 1000 nM prior to paclitaxel 1 μM, Figure 1A): significantly attenuated
Clc1ccc(/C=N/Nc2cc(N3CCOCC3)nc(N3CCOCC3)n2)cc1 [CSV0A024808]	27 ± 1	25 ± 1	91 ± 1	89 ± 4	–
CCN(CC)c1cc(N/N=C/c2ccccc2OC)nc(N(CC)CC)n1 [CSV0A007655]	39 ± 4	41 ± 2	45 ± 7	51 ± 3	–
CCCN(CCC)c1cc(N/N=C/c2ccc(Cl)cc2)nc(N(CCC)CCC)n1 [CSV0A061665]	27 ± 3	27 ± 5	37 ± 7	27 ± 3	–
CCCN(CCC)c1cc(NNC(=O)CCc2ccccc2)nc(N(CCC)CCC)n1 [CSV0D043578]	–	–	–	–	activity at 0.01 µM (primary cortical neurons [1]): 38 ± 3%; activity at 1 µM (primary cortical neurons [1]): 42 ± 4%; activity at 0.01 µM (primary cortical neurons [2]): 42 ± 5%; activity at 1 µM (primary cortical neurons [2]): 48 ± 1%
COc1ccccc1/C=N/Nc1cc(N2CCCC2)nc(N2CCCC2)n1 [CSV0A055771]	36 ± 2	40 ± 8	68 ± 6	68 ± 3	–
CN(C)c1cc(N/N=C/c2ccccc2O)nc(N(C)C)n1 [CSV0A034003]	–	–	–	–	A: Synaptogenesis (% of control) of test compound (10 nM) + paclitaxel (1 μM) (primary cortical neurons [1]; [3]): 67±5 % of control; B: Synaptogenesis (% of control) of test compound (1000 nM) + paclitaxel (1 μM) (primary cortical neurons [1]; [4]): 66±9 % of control; C: Neurite outgrowth (% of control) of test compound (10 nM) + paclitaxel (1 μM) (primary cortical neurons [2]; [3]): 61±3 % of control; D: Neurite outgrowth (% of control) of test compound (1000 nM) + paclitaxel (1 μM) (primary cortical neurons [2]; [4]): 62±3 % of control
Oc1cccc(/C=N/Nc2cc(N3CCCCC3)nc(N3CCCCC3)n2)c1 [CSV0B001120]	43 ± 5	41 ± 5	95 ± 9	82 ± 2	–
CN(C)c1ccc(/C=N/Nc2cc(N3CCOCC3)nc(N3CCOCC3)n2)cc1 [CSV0A041617]	30 ± 1	30 ± 1	93 ± 5	94 ± 1	–
O=[N+]([O-])c1ccc(/C=N/Nc2cc(N3CCCCC3)nc(N3CCCCC3)n2)cc1 [CSV0A011998]	75 ± 1	55 ± 2	77 ± 5	61 ± 6	–
CCOc1ccc(Nc2nc(/N=C/c3c(OC)c(C(=O)Nc4ccccc4C)cc4ccccc34)c([N+](=O)[O-])c(NCc3ccccc3)n2)cc1 [CSVOD047961]	30 ± 3	36 ± 1	90 ± 2	95 ± 2	–
CN(C)c1cc(N/N=C/c2ccc(Cl)cc2)nc(N(C)C)n1 [CSV0A027459]	35 ± 1	37 ± 2	76 ± 7	79 ± 11	–
O=[N+]([O-])c1ccc(/C=N/Nc2cc(N3CCCC3)nc(N3CCCC3)n2)cc1 [CSV0A024812]	55 ± 6	62 ± 3	53 ± 3	60 ± 1	–
C(=N\Nc1cc(N2CCCCCC2)nc(N2CCCCCC2)n1)/c1ccncc1 [CSV0A061667]	40 ± 6	41 ± 7	82 ± 6	82 ± 6	–
Oc1cccc(/C=N/Nc2cc(N3CCCC3)nc(N3CCCC3)n2)c1 [CSV0A055770]	24 ± 2	25 ± 2	82 ± 4	75 ± 4	–
O=[N+]([O-])c1cc(/C=N/Nc2cc(N3CCCCCC3)nc(N3CCCCCC3)n2)cc2c1OCO2 [CSV0A024811]	52 ± 1	46 ± 4	69 ± 7	60 ± 3	–
CN(C)c1cc(N/N=C/c2ccccc2)nc(N(C)C)n1 [CSV0A047582]	–	–	–	–	activity at 0.01 µM (primary cortical neurons [1]): 73 ± 3%; activity at 1 µM (primary cortical neurons [1]): 77 ± 9%; activity at 0.01 µM (primary cortical neurons [2]): 69 ± 3%; activity at 1 µM (primary cortical neurons [2]): 67 ± 3%
COc1ccccc1/C=N/Nc1cc(N2CCOCC2)nc(N2CCOCC2)n1 [CSV0A013031]	57 ± 1	33 ± 3	74 ± 3	67 ± 6	–
COc1cc(/C=N/Nc2cc(N3CCCCC3)nc(N3CCCCC3)n2)ccc1O [CSV0B006088]	45 ± 6	52 ± 10	59 ± 5	66 ± 7	–
CN(C)c1cc(NNC(=O)c2ccccc2O)nc(N(C)C)n1 [CSV0A2327S0]	42 ± 2	41 ± 5	55 ± 1	53 ± 5	–
CCN(CC)c1ccc(/C=N/Nc2cc(N3CCCCC3)nc(N3CCCCC3)n2)cc1 [CSV0A023090]	82 ± 4	86 ± 0.4	57 ± 4	58 ± 3	–
O=[N+]([O-])c1ccc(/C=N/Nc2cc(N3CCOCC3)nc(N3CCOCC3)n2)cc1 [CSV0A024806]	–	–	–	–	A: Synaptogenesis (% of control) of test compound (10 nM) + paclitaxel (1 μM) (primary cortical neurons [1]; [3]): 68±6 % of control; B: Synaptogenesis (% of control) of test compound (1000 nM) + paclitaxel (1 μM) (primary cortical neurons [1]; [4]): 78±5 % of control; C: Neurite outgrowth (% of control) of test compound (10 nM) + paclitaxel (1 μM) (primary cortical neurons [2]; [3]): 70±3 % of control; D: Neurite outgrowth (% of control) of test compound (1000 nM) + paclitaxel (1 μM) (primary cortical neurons [2]; [4]): 68±6 % of control
CN(C)c1cc(N/N=C/c2cccc([N+](=O)[O-])c2)nc(N(C)C)n1 [CSV0A027458]	73 ± 3	73 ± 3	71 ± 3	65 ± 3	–
COc1cc(/C=N/Nc2cc(N(C)C)nc(N(C)C)n2)ccc1O [CSV0A055768]	–	–	–	–	activity at 0.01 µM (primary cortical neurons [1]): 35 ± 4%; activity at 1 µM (primary cortical neurons [1]): 33 ± 0.2%; activity at 0.01 µM (primary cortical neurons [2]): 71 ± 2%; activity at 1 µM (primary cortical neurons [2]): 74 ± 6%
